Experimental data reported in US4231928A, “Antibacterial agents” (priority 1979, dated 1980).
Converted amounts (≈) assume the structure as drawn.

Columns and labels:
S. enteritidis = experiment: Tube dilution (Nutrient broth), S. enteritidis; type: cell-based; conditions: Salmonella enterica, Se-1 S. enteritidis A9531, Table 3
Description: (§1) The MIC's of BB-P598 against various organisms were also determined by the tube dilution method (Nutrient broth), and the results, compared with sulbenicillin, are shown in Table 3.

Pseudomonas aeruginosa = conditions: prior art penicillins; cited from earlier work
S. pyogenes = experiment: Tube dilution (Nutrient broth), S. pyogenes; type: cell-based; conditions: Streptococcus pyogenes, Sp-3 S. pyogenes A9604, Table 3
Description: as §1

P. aeruginosa A9843 [1] = experiment: MIC of the infecting strain with the in vivo test, P. aeruginosa A9843; type: cell-based; conditions: Pseudomonas aeruginosa, Table 7
P. aeruginosa A9843 [2] = experiment: Effect of inoculum size on MIC, serial tube dilution (Nutrient Broth); type: cell-based
Description: (§2) The effect of inoculum size of the MIC and MBC (Minimum Bacteriacidal Concentration) of BB-P598 against P. aeruginosa A9843 also was determined. The MIC's were determined by the serial tube dilution method in Nutrient Broth using four levels of inoculum size (5.3×10^3, 5.3×10^4, 5.3×10^5 and 5.3×10^6 cells/ml), along with sulbenicillin as a reference standard.

S. aureus Smith [3] = experiment: In vivo activity in experimental infection in mice, S. aureus Smith; conditions: single; for Survival/Tested: 100×LD50 challenge
Description: (§3) BB-P598 was evaluated in vivo in experimental infections in mice. The pathogenic bacteria employed were P. aeruginosa A9843, E. coli Juhl and S. aureus Smith. Mice were challenged intraperitoneally with a 100×LD50 dose of the pathogens in a 5% suspension of hog gastric mucin. The penicillin was administered subcutaneously as a single treatment, just after the bacterial challenge.
(§4) PD50 = Protective Dose50 , i.e. the dose required to give
(§5) protection to 50% of the infected mice.

E. coli Juhl [4] = experiment: In vivo activity in experimental infection in mice, E. coli Juhl; conditions: single; for Survival/Tested: 100×LD50 challenge
Description: as §3, §4, §5

S. marcescens = experiment: Tube dilution (Nutrient broth), S. marcescens; type: cell-based; conditions: Serratia marcescens
Description: as §1

E. coli = experiment: Tube dilution (Nutrient broth), E. coli; type: cell-based; conditions: Escherichia coli
Description: as §1

P. aeruginosa A9843 [5] = experiment: Effect of inoculum size on MBC and MBC/MIC ratio; type: cell-based; conditions: Table 5; for MBC: Pseudomonas aeruginosa, 99% killed
Description: as §2
Subsequent to the above MIC determinations, aliquots from the non-turbid tubes were added to Nutrient Agar plates to determine the MBC value. The MBC was assigned to the lowest concentration which killed 99% of the original cell population.

K. pneumoniae = experiment: Tube dilution (Nutrient broth), K. pneumoniae; type: cell-based; conditions: Klebsiella pneumoniae
E. cloacae = experiment: Tube dilution (Nutrient broth), E. cloacae; type: cell-based; conditions: Enterobacter cloacae, El-1 E. cloacae A9656, Table 3
Description: as §1

P. mirabilis = experiment: Tube dilution (Nutrient broth), P. mirabilis; type: cell-based; conditions: Proteus mirabilis, Pm-2 P. mirabilis A9900, Table 3
Description: as §1

S. aureus Smith [6] = experiment: MIC of the infecting strain with the in vivo test, S. aureus Smith; type: cell-based; conditions: Staphylococcus aureus, Table 7, read-out: MC
P. aeruginosa A9843 [7] = experiment: In vivo activity in experimental infection in mice, P. aeruginosa A9843; conditions: single; for Survival/Tested: 100×LD50 challenge
Description: as §3, §4, §5

P. aeruginosa = experiment: Tube dilution (Nutrient broth), P. aeruginosa; type: cell-based; conditions: Pseudomonas aeruginosa
Description: as §1

D. pneumoniae = experiment: Tube dilution (Nutrient broth), D. pneumoniae; type: cell-based; conditions: Streptococcus pneumoniae, Dp-4 D. pneumoniae A9585, Table 3
Description: as §1

S. aureus = experiment: Tube dilution (Nutrient broth), S. aureus; type: cell-based; conditions: Staphylococcus aureus
Description: as §1

P. morganii = experiment: Tube dilution (Nutrient broth), P. morganii; type: cell-based; conditions: Morganella morganii
Description: as §1

E. coli Juhl [8] = experiment: MIC of the infecting strain with the in vivo test, E. coli Juhl; type: cell-based; conditions: Escherichia coli, Table 7

CC1(C)S[C@@H]2[C@H](NC(=O)C(c3ccccc3)S(=O)(=O)O)C(=O)N2[C@H]1C(=O)O (stereo partly drawn) [Sulbenicillin, reference compound]
MIC (S. enteritidis): 1.6 µg/mL (≈ 3.86 µM) | potency against Pseudomonas aeruginosa (in words) (Pseudomonas aeruginosa): only a relatively low potency | MIC (S. pyogenes): 0.31 µg/mL (≈ 0.748 µM) | MIC (P. aeruginosa A9843 [1]): 25 µg/mL | MIC (P. aeruginosa A9843 [2]; Pseudomonas aeruginosa, A9843, inoculum 5.3 × 10^4 cell/ml, Nutrient Broth, Table 4, read-out: MIC (a)): 50 µg/mL (≈ 121 µM) | MIC (P. aeruginosa A9843 [2]; Pseudomonas aeruginosa, A9843, inoculum 5.3 × 10^4 cell/ml, Table 5, read-out: MIC): 50 µg/mL (≈ 121 µM) | MIC (P. aeruginosa A9843 [2]; Pseudomonas aeruginosa, A9843, inoculum 5.3 × 10^6 cell/ml, Nutrient Broth, Table 4, read-out: MIC (c)): > 400 µg/mL | MIC (P. aeruginosa A9843 [2]; inoculum 5.3 × 10^3 cell/ml, Table 5): 25 µg/mL (≈ 60.3 µM) | MIC ratio b/a (P. aeruginosa A9843 [2]; inoculum 5.3 × 10^5 / 5.3 × 10^4 cell/ml, Table 4): 4 | MIC ratio c/a (P. aeruginosa A9843 [2]; inoculum 5.3 × 10^6 / 5.3 × 10^4 cell/ml, Table 4): > 8 | Survival/Tested (S. aureus Smith [3]; 0.4 mg/kg sc): 0/5 | Survival/Tested (S. aureus Smith [3]; 1.6 mg/kg sc): 0/5 | Survival/Tested (S. aureus Smith [3]; 6.3 mg/kg sc): 5/5 | Survival/Tested (S. aureus Smith [3]; 25 mg/kg sc): 5/5 | ED50 (S. aureus Smith [3]; Staphylococcus aureus, sc, dose required to protect 50% of the infected mice, read-out: PD50): 3.1 mg/kg | Survival/Tested (E. coli Juhl [4]; 1.6 mg/kg sc): 0/5 | Survival/Tested (E. coli Juhl [4]; 6.3 mg/kg sc): 1/5 | Survival/Tested (E. coli Juhl [4]; 25 mg/kg sc): 5/5 | Survival/Tested (E. coli Juhl [4]; 100 mg/kg sc): 5/5 | ED50 (E. coli Juhl [4]; Escherichia coli, sc, dose required to protect 50% of the infected mice, read-out: PD50): 9.5 mg/kg | MIC (S. marcescens): 25 µg/mL (≈ 60.3 µM) | MIC (E. coli; Ec-1 E. coli NIHJ, Table 3): 6.3 µg/mL (≈ 15.2 µM) | MIC (E. coli; Ec-58 E. coli A9675, Table 3): 100 µg/mL (≈ 241 µM) | MBC (P. aeruginosa A9843 [5]; A9843, inoculum 5.3 × 10^3 cell/ml): 100 µg/mL | MBC (P. aeruginosa A9843 [5]; A9843, inoculum 5.3 × 10^4 cell/ml): 200 µg/mL | MBC/MIC (P. aeruginosa A9843 [5]; inoculum 5.3 × 10^3 cell/ml): 4 | MBC/MIC (P. aeruginosa A9843 [5]; inoculum 5.3 × 10^4 cell/ml): 4 | MIC (K. pneumoniae; Kp-3 K. pneumoniae A9977, Table 3): 6.3 µg/mL (≈ 15.2 µM) | MIC (K. pneumoniae; Kp-4 K. pneumoniae A15130, Table 3): > 100 µg/mL | MIC (E. cloacae): 50 µg/mL (≈ 121 µM) | MIC (P. mirabilis): 0.8 µg/mL (≈ 1.93 µM) | MIC (S. aureus Smith [6]): 6.3 µg/mL | Survival/Tested (P. aeruginosa A9843 [7]; 1.6 mg/kg sc): 0/5 | Survival/Tested (P. aeruginosa A9843 [7]; 6.3 mg/kg sc): 0/5 | Survival/Tested (P. aeruginosa A9843 [7]; 25 mg/kg sc): 0/5 | Survival/Tested (P. aeruginosa A9843 [7]; 100 mg/kg sc): 2/5 | Survival/Tested (P. aeruginosa A9843 [7]; 400 mg/kg sc): 4/5 | ED50 (P. aeruginosa A9843 [7]; Pseudomonas aeruginosa, A9843, sc, dose required to protect 50% of the infected mice, read-out: PD50): 140 mg/kg | MIC (P. aeruginosa; Pa-13 P. aeruginosa A9843, Table 3): 25 µg/mL (≈ 60.3 µM) | MIC (P. aeruginosa; Pa-19 P. aeruginosa A20229, Table 3): > 100 µg/mL | MIC (P. aeruginosa; Pa-57 P. aeruginosa A20546, Table 3): 25 µg/mL (≈ 60.3 µM) | MIC (D. pneumoniae): 0.08 µg/mL (≈ 0.193 µM) | MIC (S. aureus; Sa-2 S. aureus Smith +50% serum, Table 3): 3.1 µg/mL (≈ 7.48 µM) | MIC (S. aureus; Sa-2 S. aureus Smith A9537, Table 3): 3.1 µg/mL (≈ 7.48 µM) | MIC (S. aureus; Sa-11 S. aureus BX-1633 A9606, Table 3): 12.5 µg/mL (≈ 30.2 µM) | MIC (S. aureus; Sa-44 S. aureus A15097, Table 3): 25 µg/mL (≈ 60.3 µM) | MIC (P. morganii): 12.5 µg/mL (≈ 30.2 µM) | MIC (E. coli Juhl [8]): 25 µg/mL
